Measured values: ChEMBL document CHEMBL6071150, “From lab to clinic: The discovery and optimization journey of PI3K inhibitors” (Eur J Med Chem, 2024)

Tests used:
[1] = Clearance in mouse at 1 mg/kg, iv; type: ADME, organism-based; details: in vivo
[2] = Volume of distribution at steady state in mouse at 1 mg/kg, iv; type: ADME, organism-based; details: in vivo, read-out: Vdss
[3] = Cmax in mouse plasma at 5 mg/kg, po; type: ADME, organism-based
[4] = Cmax in mouse plasma at 50 mg/kg, po; type: ADME, organism-based
[5] = AUC in mouse plasma at 5 mg/kg, po; type: ADME, organism-based; details: in vivo
[6] = AUC in mouse plasma at 50 mg/kg, po; type: ADME, organism-based; details: in vivo
[7] = Oral bioavailability in mouse plasma at 5 mg/kg by LC-MS/MS analysis; type: ADME, organism-based
[8] = Oral bioavailability in mouse plasma at 50 mg/kg by LC-MS/MS analysis; type: ADME, organism-based
[9] = Plasma protein binding in mouse; type: ADME, cell-free; details: read-out: PPB (converted)
[10] = Half life in monkey; type: ADME, Macaca mulatta; details: rhesus monkey, in vivo
[11] = Metabolic stability in mouse liver microsomes assessed as half life; type: ADME, Microsome
[12] = target: Cytochrome P450 3A4 (Homo sapiens, UniProt P08684); test: Inhibition of CYP3A4 (unknown origin); type: ADME
Cytochrome P450 3A4, sequence (P08684 whole entry): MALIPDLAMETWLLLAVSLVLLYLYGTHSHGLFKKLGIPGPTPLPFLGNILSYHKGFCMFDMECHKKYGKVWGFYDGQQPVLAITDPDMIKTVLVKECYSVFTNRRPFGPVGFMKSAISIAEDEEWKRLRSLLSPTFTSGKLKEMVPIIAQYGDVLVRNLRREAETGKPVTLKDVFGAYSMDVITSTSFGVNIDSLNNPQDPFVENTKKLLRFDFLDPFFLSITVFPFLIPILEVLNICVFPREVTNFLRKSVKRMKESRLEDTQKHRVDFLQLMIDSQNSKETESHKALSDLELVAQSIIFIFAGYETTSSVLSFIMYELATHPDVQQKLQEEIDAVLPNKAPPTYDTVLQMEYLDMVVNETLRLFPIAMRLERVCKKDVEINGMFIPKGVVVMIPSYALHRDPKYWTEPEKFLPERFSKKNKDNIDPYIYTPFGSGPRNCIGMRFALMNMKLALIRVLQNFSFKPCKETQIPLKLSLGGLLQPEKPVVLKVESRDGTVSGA

[13] = Oral bioavailability in mouse; type: ADME, organism-based; details: in vivo
[14] = Oral bioavailability in Dog; type: ADME, organism-based, Canis lupus familiaris; details: in vivo
[15] = system: MCF7; test: cells; details: Homo sapiens, MCF7, 96 h
[16] = target: Phosphatidylinositol 4,5-bisphosphate 3-kinase catalytic subunit alpha isoform (Homo sapiens, UniProt P42336); test: Inhibition of GST-tagged human recombinant PI3K-p110alpha extracted from baculovirus-infected Sf9 insect cells incubated for 1 hr by microbeta counter analysis
Phosphatidylinositol 4,5-bisphosphate 3-kinase catalytic subunit alpha isoform, sequence (P42336 whole entry, canonical isoform): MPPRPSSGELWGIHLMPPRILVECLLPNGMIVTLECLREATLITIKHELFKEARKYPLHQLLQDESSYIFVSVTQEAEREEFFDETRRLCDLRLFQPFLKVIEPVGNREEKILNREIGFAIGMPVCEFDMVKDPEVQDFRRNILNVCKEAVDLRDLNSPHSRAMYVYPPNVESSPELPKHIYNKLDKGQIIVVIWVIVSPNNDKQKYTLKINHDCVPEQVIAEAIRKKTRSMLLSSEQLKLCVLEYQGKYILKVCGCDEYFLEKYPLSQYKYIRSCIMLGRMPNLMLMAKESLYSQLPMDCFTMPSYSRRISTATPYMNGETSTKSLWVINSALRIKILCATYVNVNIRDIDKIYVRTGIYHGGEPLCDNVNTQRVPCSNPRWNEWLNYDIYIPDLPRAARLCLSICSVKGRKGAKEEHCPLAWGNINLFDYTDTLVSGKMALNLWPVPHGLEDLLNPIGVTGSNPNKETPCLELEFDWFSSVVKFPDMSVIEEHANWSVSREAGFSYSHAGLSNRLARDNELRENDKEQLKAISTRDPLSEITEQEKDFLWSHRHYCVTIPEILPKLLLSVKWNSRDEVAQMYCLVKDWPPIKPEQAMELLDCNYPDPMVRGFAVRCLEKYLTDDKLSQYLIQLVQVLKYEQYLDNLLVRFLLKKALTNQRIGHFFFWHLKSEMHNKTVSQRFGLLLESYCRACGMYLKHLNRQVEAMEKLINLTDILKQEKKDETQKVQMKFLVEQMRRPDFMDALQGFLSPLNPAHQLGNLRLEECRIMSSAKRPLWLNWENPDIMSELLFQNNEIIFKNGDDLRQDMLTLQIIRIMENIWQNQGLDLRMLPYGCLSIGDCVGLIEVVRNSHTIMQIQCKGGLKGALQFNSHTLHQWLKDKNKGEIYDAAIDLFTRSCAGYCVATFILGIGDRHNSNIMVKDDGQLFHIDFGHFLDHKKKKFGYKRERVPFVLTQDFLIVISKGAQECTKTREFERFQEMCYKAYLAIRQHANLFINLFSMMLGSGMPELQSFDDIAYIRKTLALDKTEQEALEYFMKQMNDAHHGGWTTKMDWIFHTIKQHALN

[17] = Clearance in rat liver microsomes; type: ADME, Microsome
[18] = target: CYP450 (Homo sapiens, UniProt P04798+P05177+P05181+P08684+P10632+P10635+P11509+P11712+P13584+P20813+P20815+P20853+P24462+P24903+P33260+P33261+P51589+P78329+P98187+Q02928+Q08477+Q16678+Q16696+Q5TCH4+Q6VVX0+Q7Z449+Q8TAV3+Q96SQ9+Q9HB55); test: Inhibition of CYP450 (unknown origin); type: ADME, protein assay
[19] = Cmax in mouse at 1 mg/kg, iv; type: ADME, organism-based; details: in vivo
[20] = Cmax in rat at 3.4 mg/kg, po; type: ADME, organism-based; details: in vivo
[21] = Oral bioavailability in mouse at 1 mg/kg; type: ADME, organism-based; details: in vivo
[22] = Oral bioavailability in rat at 1 mg/kg; type: ADME, organism-based; details: in vivo
[23] = Cmax in SCID mouse at 3 mg/kg, iv measured upto 24 hrs by LC/MS-MS analysis; type: ADME, organism-based; details: in vivo
[24] = AUC (0 to t) in SCID mouse at 3 mg/kg, iv; type: ADME, organism-based; details: in vivo
[25] = Volume of distribution at steady state in mouse at 3 mg/kg, iv; type: ADME, organism-based; details: in vivo
[26] = Oral bioavailability in mouse at 3 mg/kg by LC-MS/MS analysis; type: ADME, organism-based; details: in vivo
[27] = Oral bioavailability in rat at 3 mg/kg by LC-MS/MS analysis; type: ADME, organism-based; details: in vivo
[28] = Oral bioavailability in Beagle dog at 3 mg/kg by LC-MS/MS analysis; type: ADME, organism-based, Canis lupus familiaris; details: in vivo
[29] = Half life in SCID mouse at 3 mg/kg, po; type: ADME, organism-based; details: in vivo
[30] = Oral bioavailability in human; type: ADME, organism-based; details: in vivo
[31] = Intrinsic clearance in rat liver microsomes; type: ADME, Microsome; details: read-out: CLH (converted)

For C[C@H](NC(=O)c1c(N)ccc2cccnc12)c1cc2cccc(Cl)c2c(=O)n1-c1ccccc1, the clearance [1] was 9.2 mL/min/kg, the Vd [2] was 1.7 L/kg and the Cmax [3] was 2000 nM. For the same molecule, the Cmax [4] was 24000 nM, the AUC [5] was 10 µM·h and the AUC [6] was 121 µM·h. For the same molecule, the bioavailability [7] was 56%, the bioavailability [8] was 66% and the fraction unbound [9] was 0.29.

C[C@H](NC(=O)c1c(N)nn2cccnc12)c1cc2cccc(C#Cc3cnn(C)c3)c2c(=O)n1-c1ccccc1 [EGANELISIB] gave a half-life [10] of 4.3 h, a half-life [11] greater than 6 h and an IC50 [12] greater than 20000 nM.

COc1ncc(-c2ccc3nccc(-c4ccnnc4)c3c2)cc1NS(=O)(=O)c1ccc(F)cc1F [OMIPALISIB] showed a bioavailability [13] of 100% and a bioavailability [14] of 80%.

Cc1c(CN2CCN(C(=O)[C@H](C)O)CC2)sc2c(N3CCOCC3)nc(-c3cnc(N)nc3)nc12 [APITOLISIB] gave an IC50 [15] of 255 nM.

Cc1c(CN2CCN(C(=O)[C@@H](C)O)CC2)sc2c(N3CCOCC3)nc(-c3cnc(N)nc3)nc12 showed an IC50 [15] of 356 nM.

Cc1nc(NC(=O)N2CCC[C@H]2C(N)=O)sc1-c1ccnc(Nc2ccccc2C(C)(C)C)n1 gave an IC50 [16] of 7.5 nM, a CLH [17] of 62 µL/min/µg and an IC50 [18] greater than 10000 nM.

For Cc1nc(NC(=O)N2CCC[C@H]2C(N)=O)sc1-c1ccnc(C(C)(C)C(F)(F)F)c1 [ALPELISIB], the CLH [17] was 29 µL/min/µg, the Cmax [19] was 520 nM and the Cmax [20] was 190 nM.

In the case of CC1(C)OCCn2c1nc1c(N3CCOCC3)nc(-c3cnc(N)nc3)nc12 [PAXALISIB], the bioavailability [21] is reported as 75% and the bioavailability [22] is reported as 77%.

Molecule C[C@H]1Cc2ccccc2N1C(=O)Cc1nc(N2CCOCC2)cc(=O)[nH]1 [SAR-260301] has a Cmax [23] of 1870 ng/mL, an AUCt [24] of 600 h/ng/mL and a Vdss [25] of 1 L/kg. The bioavailability [26] was 30%, the bioavailability [27] was 70% and the bioavailability [28] was 67%. The half-life [29] was 1.4 h.

In the case of C[C@H](Nc1ncnc2[nH]cnc12)c1cc2ccc(F)cc2nc1-c1ccccn1 [AMG-319], the bioavailability [30] is reported as 54% and the CLint scaled [31] is reported as 5.67 mL/min/kg.
